{"source": "patent US6797077B2", "about": "“Latex paint remover” (Pentagonal Holdings, Inc., priority 2000, dated 2004)", "type_in_all_cases": "in vivo", "key": {"[1]": {"experiment": "Eye irritation, 16 CFR 1500.42 and 1500.3(c)(4)", "protocol": "(§1) A cleaning composition composed of pure IBIB was tested for toxicity, skin irritation and eye irritation according to the protocol of the Federal Hazardous Substances Act, 16 CFR 1500.3(c)(2)(i), 1500.41 and 1500.42."}, "[2]": {"experiment": "Acute oral toxicity, Federal Hazardous Substances Act 16 CFR 1500.3(c)(2)(i)", "protocol": "as §1"}, "[3]": {"experiment": "Skin irritation, 16 CFR 1500.41 and 1500.3(c)(4)", "protocol": "as §1"}}, "note": "“Also recorded” adds a separate entry of the source.", "data": [{"compound": "CC(C)COC(=O)C(C)C", "note": "[IBIB, Isobutyl isobutyrate]", "values": [{"measurement": "Eye irritation conclusion", "setting": "[1]; 16 CFR 1500.42", "value": "not considered to be a primary eye irritant"}, {"measurement": "Maximum Mean Total Score (Average)", "setting": "[1]; eye irritation", "value": 3.3}, {"measurement": "Acute oral toxicity conclusion", "setting": "[2]; 16 CFR 1500.3(c)(2)(i)", "value": "non-toxic; also recorded: Not considered as toxic"}, {"measurement": "Acute Oral LD50", "setting": "[2]; dose level 5,000 mg/kg", "value": "Acute Oral LD50 greater than five (5) grams per gram body weight"}, {"measurement": "Skin irritation conclusion", "setting": "[3]; 16 CFR 1500.41", "value": "not considered to be a primary skin irritant"}, {"measurement": "Primary Dermal Irritation Score (Average)", "setting": "[3]; in vivo", "value": 2.4}]}]}
